# Measured values: ChEMBL document CHEMBL1955809, “Discovery of GS-9256: a novel phosphinic acid derived inhibitor of the hepatitis C virus NS3/4A protease with potent clinical activity” (Bioorg Med Chem Lett, 2012)
# Calls of active or inactive are those of the source. The calls are words filed in the database; no cut-off is given here.
# What was measured:
# Hepatitis C virus [1] = test: Inhibition of HCV1b NS3/4A protease; set-up: species or system Hepatitis C virus subtype 1b; settings: for IC50: Hepatitis C virus
# Hepatitis C virus [2] = test: Antiviral activity against HCV genotype 1b infected in human Huh cells expressing luc gene by replicon assay; type: functional, organism-based, Hepacivirus hominis
# [3] = Permeability from apical to basolateral side in human Caco2 cells; type: ADME, cell-based; settings: Caco-2, read-out: permeability
# [4] = Permeability from basolateral to apical side in human Caco2 cells; type: ADME, cell-based; settings: Caco-2, read-out: permeability
# [5] = Oral bioavailability in dog at 4 mg/kg; type: ADME, organism-based, Canis lupus familiaris; settings: in vivo
# [6] = Clearance in dog; type: ADME, organism-based, Canis lupus familiaris; settings: in vivo
# [7] = Selectivity ratio of IC50 human protease 3 to IC50 for HCV 1b NS3/4A protease
# [8] = Drug excretion in iv dosed bile-cannulated rat bile assessed as parent compound level after 4 hrs; type: ADME, organism-based; settings: read-out: Ae
# [9] = Selectivity ratio of IC50 for cathepsin D to IC50 for HCV1b NS3/4A protease
# [10] = Selectivity ratio of IC50 for cathepsin L to IC50 for HCV1b NS3/4A protease
# [11] = Selectivity ratio of IC50 for human leukocyte protease to IC50 for HCV1b NS3/4A protease
# [12] = Selectivity ratio of IC50 for porcine pancreatic elastase to IC50 for HCV1b NS3/4A protease
# [13] = Inhibition of CYP450; type: ADME
# [14] = molecular target: Voltage-gated inwardly rectifying potassium channel KCNH2 (Homo sapiens, UniProt Q12809); test: Inhibition of human ERG up to 25 uM
# [15] = Inhibition of P-glycoprotein
# Bile salt export pump = Bile salt export pump (Homo sapiens, UniProt O95342); test: Inhibition of BSEP
# [16] = molecular target: T1, Solute carrier family 22 member 6 (Homo sapiens, UniProt Q4U2R8); test: Activity at OAT1
# T1 sequence (Q4U2R8 whole entry): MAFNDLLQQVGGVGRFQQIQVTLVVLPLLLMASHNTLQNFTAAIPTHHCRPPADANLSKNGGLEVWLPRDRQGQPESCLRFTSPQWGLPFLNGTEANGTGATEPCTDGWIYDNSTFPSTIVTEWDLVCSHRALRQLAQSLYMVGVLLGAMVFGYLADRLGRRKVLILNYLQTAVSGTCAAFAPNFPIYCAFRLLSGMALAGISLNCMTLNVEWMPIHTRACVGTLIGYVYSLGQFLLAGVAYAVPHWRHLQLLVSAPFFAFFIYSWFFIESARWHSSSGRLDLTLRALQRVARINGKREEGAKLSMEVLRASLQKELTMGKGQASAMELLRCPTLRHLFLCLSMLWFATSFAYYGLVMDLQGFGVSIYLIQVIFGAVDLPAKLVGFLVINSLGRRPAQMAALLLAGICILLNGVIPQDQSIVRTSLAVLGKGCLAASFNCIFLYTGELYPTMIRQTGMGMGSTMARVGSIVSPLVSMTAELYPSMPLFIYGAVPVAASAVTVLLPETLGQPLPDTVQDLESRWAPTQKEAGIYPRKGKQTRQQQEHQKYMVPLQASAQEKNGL
# [17] = molecular target: T2, Solute carrier family 22 member 7 (Homo sapiens, UniProt Q9Y694); test: Activity at OAT2
# T2 sequence (Q9Y694 whole entry): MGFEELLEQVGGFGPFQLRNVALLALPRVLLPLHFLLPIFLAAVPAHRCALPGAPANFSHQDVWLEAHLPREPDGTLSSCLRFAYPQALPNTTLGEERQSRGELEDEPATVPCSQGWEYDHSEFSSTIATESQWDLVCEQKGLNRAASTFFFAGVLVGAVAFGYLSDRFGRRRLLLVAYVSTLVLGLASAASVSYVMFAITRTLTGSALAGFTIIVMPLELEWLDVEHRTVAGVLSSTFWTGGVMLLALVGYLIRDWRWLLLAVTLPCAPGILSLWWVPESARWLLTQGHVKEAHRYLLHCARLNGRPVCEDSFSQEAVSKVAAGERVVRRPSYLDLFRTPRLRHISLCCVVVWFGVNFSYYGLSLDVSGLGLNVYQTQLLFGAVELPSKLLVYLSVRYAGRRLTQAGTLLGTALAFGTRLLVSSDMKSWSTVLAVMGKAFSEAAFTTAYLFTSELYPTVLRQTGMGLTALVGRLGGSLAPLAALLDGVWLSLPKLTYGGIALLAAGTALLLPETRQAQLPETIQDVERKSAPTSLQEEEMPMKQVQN
# [18] = Half life in human; type: ADME, organism-based; settings: in vivo
# Hepatitis C virus [19] = test: Antiviral activity against HCV genotype 1 infected in human at 150 mg, po; type: functional, Hepacivirus hominis
# Hepatitis C virus [20] = test: Antiviral activity against HCV genotype 1 infected in human at 300 mg, po; type: functional, Hepacivirus hominis
# Hepatitis C virus [21] = test: Antiviral activity against HCV genotype 1 infected in human at 450 mg, po; type: functional, Hepacivirus hominis
# [22] = Half life in dog at 1 mg/kg, iv; type: ADME, organism-based, Canis lupus familiaris; set-up: dose 1 mg/kg, route intravenous; settings: in vivo
# Canis familiaris = test: AUC in dog at 1 mg/kg, iv and 4 mg/kg, po; type: ADME, organism-based, Canis lupus familiaris, Plasma; settings: in vivo
# [23] = Clearance in dog at 1 mg/kg, iv and 4 mg/kg, po; type: ADME, organism-based, Canis lupus familiaris; settings: in vivo
# [24] = Volume of distribution at steady state in dog at 1 mg/kg, iv and 4 mg/kg, po; type: ADME, organism-based, Canis lupus familiaris; settings: in vivo, read-out: Vdss
# [25] = Dissociation constant, pKa of the compound; type: physicochemical
# Chain of Voltage-gated inwardly rectifying potassium channel KCNH2 (Q12809 whole entry): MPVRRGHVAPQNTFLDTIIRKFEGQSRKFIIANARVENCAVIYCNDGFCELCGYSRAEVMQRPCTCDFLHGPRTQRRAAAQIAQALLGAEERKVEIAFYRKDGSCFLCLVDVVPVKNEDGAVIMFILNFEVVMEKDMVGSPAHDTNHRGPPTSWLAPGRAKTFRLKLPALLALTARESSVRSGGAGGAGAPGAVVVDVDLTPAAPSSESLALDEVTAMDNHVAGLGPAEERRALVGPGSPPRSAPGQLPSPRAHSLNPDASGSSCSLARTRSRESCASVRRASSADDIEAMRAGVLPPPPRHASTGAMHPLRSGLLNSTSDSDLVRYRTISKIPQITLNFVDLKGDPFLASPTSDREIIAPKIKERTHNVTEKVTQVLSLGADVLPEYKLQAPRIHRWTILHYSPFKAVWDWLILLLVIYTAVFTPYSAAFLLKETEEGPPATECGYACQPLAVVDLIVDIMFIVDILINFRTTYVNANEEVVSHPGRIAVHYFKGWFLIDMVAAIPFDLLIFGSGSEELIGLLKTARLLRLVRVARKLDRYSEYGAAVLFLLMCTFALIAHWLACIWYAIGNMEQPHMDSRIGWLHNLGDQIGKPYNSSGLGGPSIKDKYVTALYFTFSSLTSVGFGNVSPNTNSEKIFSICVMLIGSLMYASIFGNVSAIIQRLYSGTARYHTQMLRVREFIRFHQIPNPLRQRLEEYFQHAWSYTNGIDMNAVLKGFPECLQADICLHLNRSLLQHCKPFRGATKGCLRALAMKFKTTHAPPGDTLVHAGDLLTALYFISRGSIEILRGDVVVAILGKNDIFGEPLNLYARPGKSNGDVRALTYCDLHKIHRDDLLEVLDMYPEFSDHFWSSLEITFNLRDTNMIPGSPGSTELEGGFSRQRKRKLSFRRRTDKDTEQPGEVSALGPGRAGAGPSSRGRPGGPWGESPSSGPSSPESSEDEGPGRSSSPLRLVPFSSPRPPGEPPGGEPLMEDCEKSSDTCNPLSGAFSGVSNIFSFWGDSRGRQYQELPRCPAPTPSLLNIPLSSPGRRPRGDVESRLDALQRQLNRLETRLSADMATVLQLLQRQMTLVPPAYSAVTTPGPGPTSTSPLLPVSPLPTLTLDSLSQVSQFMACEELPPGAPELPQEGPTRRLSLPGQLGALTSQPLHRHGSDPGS
# Chain of Bile salt export pump (O95342 whole entry): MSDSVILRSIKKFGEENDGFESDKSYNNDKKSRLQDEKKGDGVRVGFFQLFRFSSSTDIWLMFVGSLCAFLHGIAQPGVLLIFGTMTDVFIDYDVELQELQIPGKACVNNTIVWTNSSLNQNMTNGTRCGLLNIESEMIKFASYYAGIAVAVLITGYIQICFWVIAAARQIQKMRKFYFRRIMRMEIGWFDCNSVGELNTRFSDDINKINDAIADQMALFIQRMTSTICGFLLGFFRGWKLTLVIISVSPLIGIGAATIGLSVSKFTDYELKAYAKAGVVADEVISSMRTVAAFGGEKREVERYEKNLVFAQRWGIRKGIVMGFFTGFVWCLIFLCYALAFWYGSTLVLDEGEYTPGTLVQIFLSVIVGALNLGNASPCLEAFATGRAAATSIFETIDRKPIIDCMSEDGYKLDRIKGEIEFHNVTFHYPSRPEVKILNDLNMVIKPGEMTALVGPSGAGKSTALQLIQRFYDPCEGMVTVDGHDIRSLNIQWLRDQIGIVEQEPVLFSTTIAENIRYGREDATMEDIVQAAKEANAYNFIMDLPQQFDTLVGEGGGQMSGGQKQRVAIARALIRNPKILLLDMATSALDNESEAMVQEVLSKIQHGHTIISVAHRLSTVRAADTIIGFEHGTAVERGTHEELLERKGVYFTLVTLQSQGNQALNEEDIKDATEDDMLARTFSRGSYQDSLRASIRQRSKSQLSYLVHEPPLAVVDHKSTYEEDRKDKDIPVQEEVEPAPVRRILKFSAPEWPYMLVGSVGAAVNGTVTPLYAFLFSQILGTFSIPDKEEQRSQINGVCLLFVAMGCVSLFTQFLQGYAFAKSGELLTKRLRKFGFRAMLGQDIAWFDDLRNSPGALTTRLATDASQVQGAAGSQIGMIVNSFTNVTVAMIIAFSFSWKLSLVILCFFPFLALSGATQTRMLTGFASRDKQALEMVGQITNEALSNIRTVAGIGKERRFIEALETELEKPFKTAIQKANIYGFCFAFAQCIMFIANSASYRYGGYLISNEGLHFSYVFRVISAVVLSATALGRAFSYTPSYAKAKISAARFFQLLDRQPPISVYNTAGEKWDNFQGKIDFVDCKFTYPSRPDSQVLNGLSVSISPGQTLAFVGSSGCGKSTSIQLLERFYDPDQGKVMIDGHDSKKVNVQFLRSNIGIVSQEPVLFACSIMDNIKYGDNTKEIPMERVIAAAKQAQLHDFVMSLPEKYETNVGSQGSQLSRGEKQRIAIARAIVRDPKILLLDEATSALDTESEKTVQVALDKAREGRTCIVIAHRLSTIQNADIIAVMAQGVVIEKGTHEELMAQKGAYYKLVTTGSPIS
SMILES,IC50 (Hepatitis C virus [1]),EC50 (Hepatitis C virus [2]),Papp A→B [3],Papp B→A [4],further results
C=C[C@@H]1C[C@]1(NC(=O)[C@@H]1C[C@@H](Oc2cc(-c3csc(NC(C)C)n3)nc3cc(OC)ccc23)CN1C(=O)[C@@H](NC(=O)OC1CCCC1)C(C)(C)C)P(=O)(O)Cc1cccc(C)c1,8 nM,331 nM,0.64 ×10⁻⁶ cm/s,3.5 ×10⁻⁶ cm/s,
C=C[C@@H]1C[C@]1(NC(=O)[C@@H]1C[C@@H](Oc2cc(-c3csc(NC(C)C)n3)nc3cc(OC)ccc23)CN1C(=O)[C@@H](NC(=O)OC1CCCC1)C(C)(C)C)P(=O)(O)Cc1cccc(F)c1,8 nM,239 nM,0.34 ×10⁻⁶ cm/s,1.8 ×10⁻⁶ cm/s,
C=C[C@@H]1C[C@]1(NC(=O)[C@@H]1C[C@@H](Oc2cc(-c3csc(NC(C)C)n3)nc3cc(OC)ccc23)CN1C(=O)[C@@H](NC(=O)OC1CCCC1)C(C)(C)C)P(=O)(O)Cc1cccc(OC)c1,7 nM,540 nM,0.39 ×10⁻⁶ cm/s,8.28 ×10⁻⁶ cm/s,
C=C[C@@H]1C[C@]1(NC(=O)[C@@H]1C[C@@H](Oc2cc(-c3csc(NC(C)C)n3)nc3cc(OC)ccc23)CN1C(=O)[C@@H](NC(=O)OC1CCCC1)C(C)(C)C)P(=O)(O)Cc1ccccc1OC,6 nM,48 nM,0.43 ×10⁻⁶ cm/s,6.2 ×10⁻⁶ cm/s,
COc1ccc2c(O[C@@H]3C[C@H]4C(=O)N[C@]5(P(=O)(O)Cc6ccccc6)C[C@H]5CCCCCCC[C@H](NC(=O)OC5CCCC5)C(=O)N4C3)cc(-c3csc(NC(C)C)n3)nc2c1,6 nM,5 nM,,,clearance [6]: 6 mL/min/kg
C=C[C@@H]1C[C@]1(NC(=O)[C@@H]1C[C@@H](Oc2cc(-c3csc(NC(C)C)n3)nc3cc(OC)ccc23)CN1C(=O)[C@@H](NC(=O)OC1CCCC1)C(C)(C)C)P(=O)(O)Cc1ccc(C)cc1,15 nM,860 nM,0.69 ×10⁻⁶ cm/s,12 ×10⁻⁶ cm/s,
C=C[C@@H]1C[C@]1(NC(=O)[C@@H]1C[C@@H](Oc2cc(-c3csc(NC(C)C)n3)nc3cc(OC)ccc23)CN1C(=O)[C@@H](NC(=O)OC1CCCC1)C(C)(C)C)P(=O)(O)Cc1ccc(F)cc1,7 nM,284 nM,0.84 ×10⁻⁶ cm/s,4.38 ×10⁻⁶ cm/s,
C=C[C@@H]1C[C@]1(NC(=O)[C@@H]1C[C@@H](Oc2cc(-c3csc(NC(C)C)n3)nc3cc(OC)ccc23)CN1C(=O)[C@@H](NC(=O)OC1CCCC1)C(C)(C)C)P(=O)(O)Cc1c(F)cccc1F,4 nM,74 nM,1.22 ×10⁻⁶ cm/s,10.6 ×10⁻⁶ cm/s,dose excreted at 4 h [8]: > 90%; half-life [22]: 1.6 h; AUC (Canis familiaris): 3.12 µM·h; clearance [23]: 6.17 mL/min/kg; Vd [24]: 0.31 L/kg; bioavailability [5]: 8%; pKa [25]: 2.7
COc1ccc2c(O[C@@H]3C[C@H]4C(=O)N[C@]5(P(=O)(O)Cc6c(F)cccc6F)C[C@H]5CCCCCCC[C@H](NC(=O)OC5CCCC5)C(=O)N4C3)cc(-c3csc(NC(C)C)n3)nc2c1Br,3 nM,7 nM,,,bioavailability [5]: 4.1%
COc1ccc2c(O[C@@H]3C[C@H]4C(=O)N[C@]5(C(=O)O)C[C@H]5/C=C\CCCCC[C@H](NC(=O)OC5CCCC5)C(=O)N4C3)cc(-c3csc(NC(C)C)n3)nc2c1 [CILUPREVIR],1 nM,1 nM,,,

# More lines, in order of falling IC50 (Hepatitis C virus [1]), values ahead:
IC50 (Hepatitis C virus [1]),EC50 (Hepatitis C virus [2]),Papp A→B [3],Papp B→A [4],SMILES,further results
63 nM,7700 nM,0.19 ×10⁻⁶ cm/s,2.93 ×10⁻⁶ cm/s,C=C[C@@H]1C[C@]1(NC(=O)[C@@H]1C[C@@H](Oc2cc(-c3csc(NC(C)C)n3)nc3cc(OC)ccc23)CN1C(=O)[C@@H](NC(=O)OC1CCCC1)C(C)(C)C)P(=O)(O)Cc1c(C)cccc1C,
11 nM,43 nM,,,COc1ccc2c(O[C@@H]3C[C@H]4C(=O)N[C@]5(P(=O)(O)Cc6c(F)cccc6F)C[C@H]5CCCCCCC[C@H](NC(=O)OC5CCCC5)C(=O)N4C3)cc(-c3csc(NC(C)C)n3)nc2c1F,bioavailability [5]: 6%
10 nM,460 nM,0.71 ×10⁻⁶ cm/s,5.83 ×10⁻⁶ cm/s,C=C[C@@H]1C[C@]1(NC(=O)[C@@H]1C[C@@H](Oc2cc(-c3csc(NC(C)C)n3)nc3cc(OC)ccc23)CN1C(=O)[C@@H](NC(=O)OC1CCCC1)C(C)(C)C)P(=O)(O)Cc1ccc(OC)cc1,
8 nM,146 nM,0.69 ×10⁻⁶ cm/s,3.9 ×10⁻⁶ cm/s,C=C[C@@H]1C[C@]1(NC(=O)[C@@H]1C[C@@H](Oc2cc(-c3csc(NC(C)C)n3)nc3cc(OC)ccc23)CN1C(=O)[C@@H](NC(=O)OC1CCCC1)C(C)(C)C)P(=O)(O)Cc1ccccc1C,
7 nM,170 nM,0.7 ×10⁻⁶ cm/s,6.1 ×10⁻⁶ cm/s,C=C[C@@H]1C[C@]1(NC(=O)[C@@H]1C[C@@H](Oc2cc(-c3csc(NC(C)C)n3)nc3cc(OC)ccc23)CN1C(=O)[C@@H](NC(=O)OC1CCCC1)C(C)(C)C)P(=O)(O)Cc1ccccc1,
6 nM,340 nM,0.53 ×10⁻⁶ cm/s,6.36 ×10⁻⁶ cm/s,C=C[C@@H]1C[C@]1(NC(=O)[C@@H]1C[C@@H](Oc2cc(-c3csc(NC(C)C)n3)nc3cc(OC)ccc23)CN1C(=O)[C@@H](NC(=O)OC1CCCC1)C(C)(C)C)P(=O)(O)Cc1c(F)cccc1C(F)(F)F,
6 nM,120 nM,0.89 ×10⁻⁶ cm/s,5.87 ×10⁻⁶ cm/s,C=C[C@@H]1C[C@]1(NC(=O)[C@@H]1C[C@@H](Oc2cc(-c3csc(NC(C)C)n3)nc3cc(OC)ccc23)CN1C(=O)[C@@H](NC(=O)OC1CCCC1)C(C)(C)C)P(=O)(O)Cc1c(F)cccc1Cl,
4 nM,20 nM,,,COc1ccc2c(O[C@@H]3C[C@H]4C(=O)N[C@]5(P(=O)(O)Cc6c(F)cccc6F)C[C@H]5CCCCCCC[C@H](NC(=O)OC5CCCC5)C(=O)N4C3)cc(-c3csc(NC(C)C)n3)nc2c1Cl [GS-9256],Ki (Hepatitis C virus [1]): 0.089 nM; Ratio IC50 [7]: 6600; dose excreted at 4 h [8]: 95%; bioavailability [5]: 21%; Ratio IC50 [9]: 5300; Ratio IC50 [10]: 5400; Ratio IC50 [11]: 987; Ratio IC50 [12]: 28600; inhibition (INH) [13]: Not Active; inhibition (INH) [14]: Not Active; inhibition [15]: Active; inhibition (INH) (Bile salt export pump): Active; Activity [16]: Active; Activity [17]: Active; half-life [18]: 7 h; Activity (Hepatitis C virus [19]): -1.8 log10IU/ml; Activity (Hepatitis C virus [20]): -2.4 log10IU/ml; Activity (Hepatitis C virus [21]): -2.8 log10IU/ml
4 nM,170 nM,0.53 ×10⁻⁶ cm/s,2.74 ×10⁻⁶ cm/s,C=C[C@@H]1C[C@]1(NC(=O)[C@@H]1C[C@@H](Oc2cc(-c3csc(NC(C)C)n3)nc3cc(OC)ccc23)CN1C(=O)[C@@H](NC(=O)OC1CCCC1)C(C)(C)C)P(=O)(O)Cc1ccccc1F,
4 nM,10 nM,,,COc1ccc2c(O[C@@H]3C[C@H]4C(=O)N[C@]5(P(=O)(O)Cc6c(F)cccc6F)C[C@H]5CCCCCCC[C@H](NC(=O)OC5CCCC5)C(=O)N4C3)cc(-c3csc(NC(C)C)n3)nc2c1,bioavailability [5]: 2.9%
